In patent US8034242B2, “Dialysis device” (Linden Technologies, Inc., priority 2004, dated 2011):

System: plasma protein
Format: in vitro ADME, dog
Procedure: One dialysis device was used in an equilibrium dialysis study to measure plasma protein binding of warfarin. A 0.1 M warfarin solution was prepared by dissolving 0.154 g of warfarin in 5 ml of phosphate buffered salts (PBS). The pH was adjusted with 400 Tl of 6 M NaOH to a final volume of 5.761 ml and a final concentration of 86.8 mM. The warfarin solution was then diluted to 1 mM before adding to the plasma solution. 2.2 Tl of 1 mM warfarin was added to 2.2 ml plasma to make 1 TM final concentration of warfarin in the plasma. 1 ml of the warfarin-containing dog plasma was added inside the cylindrical membrane of each dialysis device and 1 ml of PBS to outside of the membrane. The filled device was placed in a 37° C. incubator with gentle shaking 100 Tl samples were withdrawn separately from the plasma and the buffer chambers at 0.5, 1, 2, 3, and 4 h intervals. To the plasma sample was added 100 μl of blank buffer. To the buffer sample was added 100 μl of blank plasma. After mixing, 50 μl of the plasma sample was withdrawn. To the plasma sample (50 μl) was added 450 μl of 1:1 ratio of plasma/buffer solution to make a 10-fold dilution. The sample from the buffer was not diluted. 200 μl acetonitrile was added to 200 μl each of the samples from plasma and the buffer. The mixtures were vortexed and then centrifuged at 13,000 rpm for 3 min. The resulting extracts were analyzed using an API-40003 LC/MS/MS system (Applied Biosciences/MDS SCIEX). […] The experiment was conducted in duplicate.

consistency of equilibrium curve (time to equilibrium): ≤ 1 h | dialysis reached equilibrium state (time): ≤ 30 min | ratio of protein binding (dog, 1 µM): ~99%
Structure (SMILES): CC(=O)CC(c1ccccc1)c1c(O)c2ccccc2oc1=O (stereo not drawn) [warfarin]
